Consider 23 compounds from patent EP1143251B9, “METHOD AND BIOSENSOR FOR DETECTING ANTIGEN” (priority 1999, dated 2000).

The conditions of data set [1]: titer based on the toxicity of 2,3,7,8-TCDD (receptor binding, allylhydrocarbon hydroxylase inducing ability, toxic effect); cited from earlier work.
Data set [2] relates to anti-dioxin monoclonal antibody. The following applies: Catalog No. PDI-Dioxin-30, IgG1, host mouse; cited from earlier work.
For data set [3] the test system is unchanged. The experiment in a line: surface plasmon resonance (BIAcore 2000) competitive method with HRP-2,3,7,8-TCDD on an antibody-fixed CM5 sensor chip. The format is binding, mouse. To be noted: average of the four cells. The text has this: An anti-dioxin monoclonal antibody was fixed to a sensor chip by the aminocoupling method using BIAcore (registered trademark) 2000.
As a sensor chip to which the antibody was not fixed, a sensor chip (commercial name CM5) available from BIAcore company was used. The metallic thin film 14 is composed of gold, and its thickness is 50 nm. The fixing body 18 is carboxymethyldextran having no crosslinked structure, and its thickness is 100 nm.
As the anti-dioxin monoclonal antibody, Catalog No. PDI-Dioxin-30 (Research Diagnostics, Inc., Pleasant Hill Road, Flanders, New Jersey, USA) was used. As the host, mouse was used. This anti-dioxin monoclonal antibody contains 10 mg IgG1 in 3.125 ml (3.2 mg/ml), 0.2M PBS, pH 7.2, and 0.05% sodium azide.
First, BIAcore's sensor chip CM5 was set in BIAcore (registered trademark) 2000. Then, a mixed solution of N-ethyl-N'-(3-dimethylaminopropyl)carbodiimide hydrochloride (EDC) and N-hydroxysuccinimide (NHS) was injected into BIAcore (registered trademark) 2000 to activate the sensor chip CM5.
The anti-dioxin monoclonal antibody (1,000 ppm) was centrifuged to replace the solvent. Finally, the antibody was dissolved in 100 µl of 10 mM acetic acid environment solution. The resulting solution in an amount of 50 µl was injected into BIAcore (registered trademark) 2000 at a rate of 5 µl/min to fix the anti-dioxin monoclonal antibody onto the surface of the sensor chip. […]
Using the sensor chip obtained in Example 1, dioxins were detected by the competitive method. […]
The diluted 2,3,7,8-TCDD solution of each concentration was mixed with 10 ppm HRP-2,3,7,8-TCDD in BIAcore. […] A change in the disappearance angle due to the binding of 2,3,7,8-TCDD itself to the antibody is too small to be measured by SPR. […]
Then, the mixture was injected (3 µl/min) into BIAcore 2000, and an SPR signal was measured to determined the disappearance angle. That is, polarized light with a wavelength of 760 nm was projected, and the intensity of reflected light was measured, with the angle of incidence of incident light being varied. […]
A general note: In SPR one partner is held on a chip, and binding of the other changes the refractive index at the surface.

Some results are limits rather than exact numbers.

For `Clc1cc2c(c(Cl)c1Cl)Oc1c(Cl)c(Cl)c(Cl)c(Cl)c1O2` [1,2,3,4,6,7,8-Hepta CDD], in data set [1], the TEF is on record as 0.01.
Turning to `Clc1cc2c(oc3c(Cl)c(Cl)c(Cl)c(Cl)c32)c(Cl)c1Cl` [1,2,3,4,6,7,8-Hepta CDF], the TEF in data set [1] is on record as 0.1.
Turning to `Clc1cc2oc3c(Cl)c(Cl)c(Cl)c(Cl)c3c2c(Cl)c1Cl` [1,2,3,4,7,8,9-Hepta CDF], in data set [1], the TEF is reported as 0.1.
`Clc1cc2c(cc1Cl)Oc1c(Cl)c(Cl)c(Cl)c(Cl)c1O2` [1,2,3,4,7,8-Hexa CDD]: the TEF in data set [1] is 0.1.
As to `Clc1cc2oc3c(Cl)c(Cl)c(Cl)c(Cl)c3c2cc1Cl` [1,2,3,4,7,8-Hexa CDF], the TEF in data set [1] is given as 0.1.
With `Clc1cc2c(c(Cl)c1Cl)Oc1cc(Cl)c(Cl)c(Cl)c1O2` [1,2,3,6,7,8-Hexa CDD], in data set [1], the TEF is on record as 0.1.
Turning to `Clc1cc2c(oc3cc(Cl)c(Cl)c(Cl)c32)c(Cl)c1Cl` [1,2,3,6,7,8-Hexa CDF], in data set [1], the TEF was 0.1.
As to `Clc1cc2c(c(Cl)c1Cl)Oc1c(cc(Cl)c(Cl)c1Cl)O2` [1,2,3,7,8,9-Hexa CDD], in data set [1], the TEF is 0.1.
On to `Clc1cc2oc3cc(Cl)c(Cl)c(Cl)c3c2c(Cl)c1Cl` [1,2,3,7,8,9-Hexa CDF], for which the TEF in data set [1] is recorded as 0.1.
With `Clc1cc2c(cc1Cl)Oc1c(cc(Cl)c(Cl)c1Cl)O2` [1,2,3,7,8-Penta CDD], the TEF in data set [1] is recorded as 0.5.
In the case of `Clc1cc2oc3cc(Cl)c(Cl)c(Cl)c3c2cc1Cl` [1,2,3,7,8-Penta CDF], the TEF in data set [1] is 0.05.
Consider `Clc1cc(Cl)c2c(c1Cl)Oc1ccccc1O2` [1,2,4-TriCDD], for which the “reactivity of the anti-dioxin monoclonal antibody” value (shortened to “reactivity”) in data set [2] is below 1.0%.
`Clc1cc(Cl)c2c(c1)Oc1c(Cl)cc(Cl)cc1O2` [1,3,6,8-Tetra CDD]: the TEF in data set [1] is reported as 0.
For the compound `Clc1cc(Cl)c2c(c1)oc1c(Cl)cc(Cl)cc12` [1,3,6,8-Tetra CDF], the TEF in data set [1] was 0.
As for `Clc1cc(Cl)c2c(c1)Oc1cc(Cl)cc(Cl)c1O2` [1,3,7,9-Tetra CDD], in data set [1], the TEF is listed as 0.
Turning to `Clc1cc2c(oc3c(Cl)c(Cl)c(Cl)cc32)c(Cl)c1Cl` [2,3,4,6,7,8-Hexa CDF], the TEF in data set [1] is 0.1.
On to `Clc1cc2c(cc1Cl)Oc1cc(Cl)c(Cl)cc1O2` [2,3,7,8-TCDD], for which the “reactivity” value in data set [2] was 100%. Moreover, the entries for the “ΔRU Average” value in data set [3] (Dioxin concentration 3.8 ppb), in data set [3] (Dioxin concentration 7.6ppb) and in data set [3] (Dioxin concentration 76 ppb) were 234.75 RU, 197.9 RU and 135.9 RU, respectively. Besides, the TEF in data set [1] is listed as 1.
As to `Clc1cc2oc3cc(Cl)c(Cl)cc3c2cc1Cl` [2,3,7,8-TCDF], in data set [2], the “reactivity” value was 4.6%. In addition, in data set [1], the TEF was 0.1.
Take `Clc1ccc2c(c1)Oc1cc(Cl)c(Cl)cc1O2` [2,3,7-TriCDD]: in data set [2], the “reactivity” value was below 20%.
As to `Clc1cc2c(cc1Cl)Oc1ccccc1O2` [2,3-DCDD], in data set [2], the “reactivity” value is recorded as 2.2%.
On to `Clc1ccc2c(c1)Oc1ccccc1O2` [2-CDD], for which the “reactivity” value in data set [2] is on record as 0.3%.
For the compound `Clc1c(Cl)c(Cl)c2c(c1Cl)Oc1c(Cl)c(Cl)c(Cl)c(Cl)c1O2` [Octa CDD], the TEF in data set [1] is listed as 0.001.
As to `Clc1c(Cl)c(Cl)c2c(oc3c(Cl)c(Cl)c(Cl)c(Cl)c32)c1Cl` [Octa CDF], the TEF in data set [1] was 0.001.
